How the values were obtained:
[1] = Apparent permeability from basolateral to apical side in Caco2 cells at 1 to 10 uM incubated for 90 mins by LC-MS/MS analysis; type: ADME, cell-based; settings: human, Caco-2
in vitro = settings: human, Caco-2
Description: Apparent permeability from apical to basolateral side in Caco2 cells at 1 to 10 uM incubated for 90 mins by LC-MS/MS analysis

NCI-H1993 = assay: Cytotoxicity against human NCI-H1993 cells assessed as growth inhibition after 72 hrs by CCK-8 assay; settings: NCI-H1993, 72 h
Cytochrome P450 2C9 = Cytochrome P450 2C9 (Homo sapiens, UniProt P11712); assay: Inhibition of CYP2C9 in human liver microsomes at 10 uM using sulfaphenazole as […] preincubated for 5 mins followed by NADPH addition measured after 20 mins by LC-MS/MS analysis; type: ADME
Cytochrome P450 2D6 [2] = molecular target: T1, Cytochrome P450 2D6 (Homo sapiens, UniProt P10635); assay: Time-dependent inhibition of CYP2D6 in human liver microsomes at 10 uM using paroxetine as […] preincubated with compound followed by NADPH addition by LC-MS/MS analysis; type: ADME
Cytochrome P450 1A2 = molecular target: T2, Cytochrome P450 1A2 (Homo sapiens, UniProt P05177); assay: Time-dependent inhibition of CYP1A2 in human liver microsomes at 10 uM using furafylline as […] preincubated with compound followed by NADPH addition by LC-MS/MS analysis; type: ADME
T2 sequence (P05177 whole entry): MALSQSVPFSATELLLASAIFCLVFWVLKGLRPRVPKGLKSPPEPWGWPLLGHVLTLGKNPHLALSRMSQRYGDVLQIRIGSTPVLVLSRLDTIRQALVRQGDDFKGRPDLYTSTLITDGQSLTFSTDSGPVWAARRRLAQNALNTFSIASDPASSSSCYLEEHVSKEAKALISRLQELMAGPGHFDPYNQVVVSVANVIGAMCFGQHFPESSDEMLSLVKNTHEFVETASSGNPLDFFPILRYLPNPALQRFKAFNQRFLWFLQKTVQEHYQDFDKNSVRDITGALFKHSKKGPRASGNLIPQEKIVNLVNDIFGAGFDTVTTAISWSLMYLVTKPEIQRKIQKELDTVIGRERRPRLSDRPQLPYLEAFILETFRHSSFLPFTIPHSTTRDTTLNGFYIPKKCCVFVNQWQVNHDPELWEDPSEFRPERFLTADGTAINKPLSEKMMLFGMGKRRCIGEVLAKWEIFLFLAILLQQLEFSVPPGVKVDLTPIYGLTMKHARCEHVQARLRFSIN

[3] = Intrinsic clearance in rat liver microsomes assessed per mg of protein at 1 uM preincubated for 5 mins followed by NADPH addition measured after 5 to 30 mins by LC-MS/MS analysis; type: ADME, Microsome; settings: read-out: CLH
Cytochrome P450 3A4 [4] = molecular target: T3, Cytochrome P450 3A4 (Homo sapiens, UniProt P08684); assay: Time-dependent inhibition of CYP3A4 in human liver microsomes at 10 uM using troleandomycin as […] preincubated with compound followed by NADPH addition by LC-MS/MS analysis; type: ADME
[5] = Intrinsic clearance in human liver microsomes assessed per mg of protein at 1 uM preincubated for 5 mins followed by NADPH addition measured after 5 to 30 mins by LC-MS/MS analysis; type: ADME, Microsome; settings: read-out: CLH
[6] = Efflux ratio of permeability from basolateral to apical side over apical to basolateral side in Caco2 cells at 1 to 10 uM incubated for 90 mins by LC-MS/MS analysis; type: ADME, cell-based; settings: human, Caco-2
[7] = molecular target: Hepatocyte growth factor receptor (Homo sapiens, UniProt P08581)
Description: Inhibition of c-Met kinase (unknown origin) assessed as decrease in phosphorylation of TK substrate-biotin peptide preincubated for 5 to 10 mins followed by ATP addition measured after 30 mins by HTRF assay

Cytochrome P450 2C19 = Cytochrome P450 2C19 (Homo sapiens, UniProt P33261); assay: Inhibition of CYP2C19 in human liver microsomes at 10 uM using tranylcypromine as […] preincubated for 5 mins followed by NADPH addition measured after 20 mins by LC-MS/MS analysis; type: ADME
Cytochrome P450 2D6 [8] = molecular target: T1, Cytochrome P450 2D6; assay: Inhibition of CYP2D6 in human liver microsomes at 10 uM using quinidine as […] preincubated for 5 mins followed by NADPH addition measured after 20 mins by LC-MS/MS analysis; type: ADME
Cytochrome P450 3A4 [9] = molecular target: T3, Cytochrome P450 3A4; assay: Inhibition of CYP3A4 in human liver microsomes at 10 uM using ketoconazole as […] preincubated for 5 mins followed by NADPH addition measured after 20 mins by LC-MS/MS analysis; type: ADME

Sequence of Hepatocyte growth factor receptor (P08581 whole entry): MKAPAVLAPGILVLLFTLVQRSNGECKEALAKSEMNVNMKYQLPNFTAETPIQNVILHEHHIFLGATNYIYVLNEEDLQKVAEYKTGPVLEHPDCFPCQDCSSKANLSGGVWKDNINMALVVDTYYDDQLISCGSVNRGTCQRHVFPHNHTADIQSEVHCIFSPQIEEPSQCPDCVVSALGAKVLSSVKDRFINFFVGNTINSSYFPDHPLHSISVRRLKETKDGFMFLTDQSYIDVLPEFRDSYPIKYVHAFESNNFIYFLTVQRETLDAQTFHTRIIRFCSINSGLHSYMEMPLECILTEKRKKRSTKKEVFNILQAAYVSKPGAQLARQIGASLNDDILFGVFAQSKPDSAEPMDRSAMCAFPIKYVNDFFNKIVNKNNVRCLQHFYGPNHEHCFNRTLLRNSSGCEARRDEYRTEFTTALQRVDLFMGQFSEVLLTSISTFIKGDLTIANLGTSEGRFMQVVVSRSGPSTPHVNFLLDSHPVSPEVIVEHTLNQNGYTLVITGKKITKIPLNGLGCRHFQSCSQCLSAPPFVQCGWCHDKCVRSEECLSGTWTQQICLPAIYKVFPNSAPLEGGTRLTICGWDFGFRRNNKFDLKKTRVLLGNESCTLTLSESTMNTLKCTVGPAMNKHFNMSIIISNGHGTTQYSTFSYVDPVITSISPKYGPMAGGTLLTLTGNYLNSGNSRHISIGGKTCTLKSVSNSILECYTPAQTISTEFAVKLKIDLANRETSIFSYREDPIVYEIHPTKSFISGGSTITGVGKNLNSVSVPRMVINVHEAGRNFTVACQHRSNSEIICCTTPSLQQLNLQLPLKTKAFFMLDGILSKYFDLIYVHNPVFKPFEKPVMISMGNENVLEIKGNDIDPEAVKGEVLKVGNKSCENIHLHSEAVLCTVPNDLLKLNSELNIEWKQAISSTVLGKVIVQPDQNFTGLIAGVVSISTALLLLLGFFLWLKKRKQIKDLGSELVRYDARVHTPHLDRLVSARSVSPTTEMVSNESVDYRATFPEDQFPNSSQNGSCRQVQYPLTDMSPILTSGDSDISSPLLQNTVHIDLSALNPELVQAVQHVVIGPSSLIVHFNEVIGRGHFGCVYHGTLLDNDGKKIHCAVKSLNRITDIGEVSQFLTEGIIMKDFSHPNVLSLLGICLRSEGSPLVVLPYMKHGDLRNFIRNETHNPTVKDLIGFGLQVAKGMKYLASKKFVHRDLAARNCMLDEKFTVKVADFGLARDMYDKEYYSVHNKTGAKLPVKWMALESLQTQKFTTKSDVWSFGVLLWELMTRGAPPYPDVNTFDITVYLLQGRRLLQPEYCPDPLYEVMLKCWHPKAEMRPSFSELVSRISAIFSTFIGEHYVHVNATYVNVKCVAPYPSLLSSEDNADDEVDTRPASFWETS
Sequence of Cytochrome P450 2C19 (P33261 whole entry): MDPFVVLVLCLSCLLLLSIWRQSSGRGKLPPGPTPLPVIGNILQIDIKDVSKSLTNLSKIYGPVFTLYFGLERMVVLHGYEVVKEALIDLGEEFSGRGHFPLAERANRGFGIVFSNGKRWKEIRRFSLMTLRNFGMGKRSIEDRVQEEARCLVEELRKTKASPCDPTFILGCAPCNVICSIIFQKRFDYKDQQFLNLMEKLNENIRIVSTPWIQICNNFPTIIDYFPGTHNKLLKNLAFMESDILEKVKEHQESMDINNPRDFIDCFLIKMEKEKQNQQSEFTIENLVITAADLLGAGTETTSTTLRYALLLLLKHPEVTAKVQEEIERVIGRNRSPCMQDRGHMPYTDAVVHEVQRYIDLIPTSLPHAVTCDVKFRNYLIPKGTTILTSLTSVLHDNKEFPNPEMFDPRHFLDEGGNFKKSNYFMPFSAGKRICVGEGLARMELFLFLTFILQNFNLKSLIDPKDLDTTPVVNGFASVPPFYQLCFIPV
T3 sequence (P08684 whole entry): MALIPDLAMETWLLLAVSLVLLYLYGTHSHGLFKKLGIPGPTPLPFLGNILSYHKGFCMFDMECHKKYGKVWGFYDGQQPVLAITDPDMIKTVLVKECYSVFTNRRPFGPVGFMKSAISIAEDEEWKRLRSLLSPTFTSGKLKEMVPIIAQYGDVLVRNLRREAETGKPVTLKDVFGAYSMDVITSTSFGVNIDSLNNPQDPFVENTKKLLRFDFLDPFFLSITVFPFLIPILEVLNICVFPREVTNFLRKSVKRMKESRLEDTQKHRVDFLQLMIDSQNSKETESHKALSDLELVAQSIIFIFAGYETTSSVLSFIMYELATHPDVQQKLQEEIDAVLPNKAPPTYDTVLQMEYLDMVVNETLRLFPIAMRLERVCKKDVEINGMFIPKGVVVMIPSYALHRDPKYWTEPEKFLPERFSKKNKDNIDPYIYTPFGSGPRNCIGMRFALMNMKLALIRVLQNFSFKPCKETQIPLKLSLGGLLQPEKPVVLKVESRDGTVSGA
Sequence of Cytochrome P450 2C9 (P11712 whole entry): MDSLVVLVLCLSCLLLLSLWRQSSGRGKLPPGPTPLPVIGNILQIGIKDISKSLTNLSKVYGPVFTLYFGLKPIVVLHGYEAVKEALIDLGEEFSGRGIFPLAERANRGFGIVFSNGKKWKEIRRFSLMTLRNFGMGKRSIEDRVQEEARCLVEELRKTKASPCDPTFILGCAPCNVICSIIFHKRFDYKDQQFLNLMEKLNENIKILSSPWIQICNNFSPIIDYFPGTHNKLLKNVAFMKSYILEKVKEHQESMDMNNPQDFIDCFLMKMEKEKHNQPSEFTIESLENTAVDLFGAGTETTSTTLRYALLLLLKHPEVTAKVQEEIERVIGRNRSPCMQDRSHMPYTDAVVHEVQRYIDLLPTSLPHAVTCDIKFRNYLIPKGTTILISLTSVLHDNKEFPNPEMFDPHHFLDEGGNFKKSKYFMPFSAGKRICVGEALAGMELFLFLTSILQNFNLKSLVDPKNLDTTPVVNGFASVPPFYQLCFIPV
T1 sequence (P10635 whole entry): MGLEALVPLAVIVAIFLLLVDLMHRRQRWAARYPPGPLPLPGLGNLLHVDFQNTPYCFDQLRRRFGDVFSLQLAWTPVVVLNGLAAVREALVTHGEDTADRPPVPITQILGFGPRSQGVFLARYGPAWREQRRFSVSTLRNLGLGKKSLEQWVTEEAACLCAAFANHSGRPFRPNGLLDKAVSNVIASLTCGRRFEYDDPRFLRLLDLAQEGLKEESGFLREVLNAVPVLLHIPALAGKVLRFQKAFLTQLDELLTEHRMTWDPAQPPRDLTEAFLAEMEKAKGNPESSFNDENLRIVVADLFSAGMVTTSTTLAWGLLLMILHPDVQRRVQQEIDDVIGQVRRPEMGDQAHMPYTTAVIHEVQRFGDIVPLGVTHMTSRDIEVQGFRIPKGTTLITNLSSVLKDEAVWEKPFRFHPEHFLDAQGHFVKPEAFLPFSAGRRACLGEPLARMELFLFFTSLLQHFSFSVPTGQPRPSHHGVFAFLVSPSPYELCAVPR

SMILES | Papp B→A at 1.5 h [1] [×10⁻⁶ cm/s] | Papp A→B at 1.5 h, 10 µM (in vitro) [×10⁻⁶ cm/s] | IC50 (NCI-H1993) [nM] | inhibition (INH) (Cytochrome P450 2C9) | inhibition (INH) (Cytochrome P450 2D6 [2]) | inhibition (INH) (Cytochrome P450 1A2) | microsomal CLint at 1 µM [3] [µL/min/mg] | inhibition (INH) (Cytochrome P450 3A4 [4]) | microsomal CLint at 1 µM [5] [µL/min/mg] | efflux ratio at 1.5 h [6] | IC50 [7] [nM] | inhibition (INH) (Cytochrome P450 2C19) | inhibition (INH) (Cytochrome P450 2D6 [8]) | inhibition (INH) (Cytochrome P450 3A4 [9])
CC(c1cc2cccnc2cc1F)n1cnc2ncc(-c3ccc(C(N)=O)c(F)c3)nc21 (stereo not drawn) | 81.4 | 82.3 | 19.5 | Active | Not Active | Not Active | 85 | Not Active | 14 | 0.99 | 1.7 |  |  | 
CC(c1c(F)cc2ncccc2c1F)n1cnc2ncc(-c3cnn(C)c3)nc21 (stereo not drawn) |  |  | 35.5 | Active | Not Active | Not Active | 63 | Not Active | 11 |  | 1 | Active |  | 
O=C1OC2(c3ccc([O-])cc3Oc3cc([O-])ccc32)c2ccccc21.[Na+].[Na+] |  | 2.72 |  |  |  |  |  |  |  |  |  |  |  | 
COC(=O)c1ccc(-c2cnc3ncn(C(C)c4cc5cccnc5cc4F)c3n2)cc1F (stereo not drawn) |  |  | 60.2 | Active | Not Active | Not Active | 125 | Not Active | 73 |  | 2.9 |  |  | 
CC(=O)O[C@H]1C(=O)[C@@]2(C)[C@H]([C@H](OC(=O)c3ccccc3)[C@]3(O)C[C@H](OC(=O)[C@H](O)[C@@H](NC(=O)c4ccccc4)c4ccccc4)C(C)=C1C3(C)C)[C@]1(OC(C)=O)CO[C@@H]1C[C@@H]2O [PACLITAXEL] | 3.3 | 1.46 |  |  |  |  |  |  |  | 2.27 |  |  |  | 
CC(c1c(F)cc2ncccc2c1F)n1cnc2ncc(-c3cnn(CCO)c3)nc21 (stereo not drawn) |  |  | 83.7 | Active | Not Active | Not Active | 10 | Not Active | 2 |  | 1 |  |  | 
CNC(=O)c1ccc(-c2cnc3ncn(C(C)c4cc5cccnc5cc4F)c3n2)cc1F (stereo not drawn) | 39.5 | 39.8 | 32.7 | Active |  |  | 85 | Active | 16 | 0.99 | 2.3 | Active | Active | Active
CC(C)NCC(O)COc1cccc2ccccc12 (stereo not drawn) [PROPRANOLOL] |  | 21.5 |  |  |  |  |  |  |  |  |  |  |  | 
CC(c1c(F)cc2ncccc2c1F)n1cnc2ncc(-c3ccncc3)nc21 (stereo not drawn) |  |  | 162 | Active | Not Active | Not Active | 77 | Not Active | 14 |  | 1.6 | Active |  | Active
CC(c1c(F)cc2ncccc2c1F)n1cnc2ncc(-c3cnc4ccccc4c3)nc21 (stereo not drawn) |  |  | 46.1 | Active | Active | Active | 275 | Active | 51 |  | 1.3 | Active | Active | 
C[C@@H](c1cc2cccnc2cc1F)n1cnc2ncc(-c3ccc(C(N)=O)c(F)c3)nc21 | 47.9 | 43.7 | 11.8 | Active |  |  | 131 | Not Active | 23 | 1.1 | 1.32 |  |  | Active

From ChEMBL document CHEMBL4477239 (Bioorg Med Chem, 2016)
